Measured values: US20090217393A1, “Growth Promoting Agent and Life Prolonging Agent” (B FOOD SCIENCE CO., LTD., priority 2005, published 2009)

Experiments:
[1] = system: Layers (white Plymouth Rock); assay: Layer growth test; format: in vivo; details: feed containing 5% by mass of erythritol
Method: Layers (white Plymouth Rock) were divided into a group fed with a feed containing 5% by mass of erythritol (erythritol-added group; the present invention) and a group fed with a feed containing no erythritol (no-erythritol-added group; control), and bred. The breeding was performed for 24 months, which was generally defined so as to generate economic benefits, and the survival rates were continuously watched. Meanwhile, average body weights (g) were continuously watched for four weeks.

shiitake = assay: Mushroom (shiitake) cultivation test; format: in vivo; details: for Number of mushroom with pileus diameter of 5 cm or more: 8 days later, control 2
Method: A shiitake cultivation test was performed using a commercially available shiitake cultivation kit.
The cultivation kit is a product produced by hardening wood chips prepared by pulverizing broad-leaved tree, together with a nutritional supplement and a shiitake fungus into a block form. The blocks were separately immersed in aqueous solutions containing 0% by mass (no addition), 0.05% by mass, 0.5% by mass, and 5% by mass of erythritol, and the surfaces of the blocks were washed. Then, the blocks were placed in plastic bags to prevent drying, and the tops of the bags were closed with clothespins, followed by cultivation of the shiitake while adjusting the temperature to 23° C. during the daytime and to 8° C. during the nighttime. Whenever the surfaces of the blocks were dried, the surfaces of the blocks were moisturized using a spray with the aqueous solutions containing erythritol at the above-mentioned each concentration. 3 days later, the shiitake started to germinate on the blocks, and 8 days later, the diameter and number of each pileus of the shiitake were measured.

[2] = system: yeast Saccharomyces cerevisiae; assay: Yeast culture test; format: cell-based; details: SD medium containing 0.006% by mass of erythritol
Method: A yeast Saccharomyces cerevisiae was cultured in an SD medium containing 0.006% by mass of erythritol (erythritol-added group; the present invention) and in an SD medium containing no erythritol (no-erythritol-added group; control). 27 hours later, absorbances at 660 nm were measured.

Arabidopsis plants = assay: Arabidopsis plant cultivation test; format: in vivo; details: Murashige & Skoog medium containing 0.06% by mass of erythritol; vs control
Description: Arabidopsis plants were separately inoculated into a Murashige & Skoog medium containing 0.06% by mass of erythritol (erythritol-added group; the present invention) and a medium containing no erythritol (no-erythritol-added group; control), followed by comparison of growth of the Arabidopsis plants.

Radish sprouts = assay: Radish sprout cultivation test; format: in vivo
Method: Radish sprouts were cultivated in 0.75% agar mediums containing erythritol, mannitol, and sorbitol each at concentrations of 0.05% by mass, 0.1% by mass, and 0.5% by mass as sugar alcohols, and in an agar medium containing no sugar alcohol (0%). 3 and 6 days after germination, the lengths of radish sprouts were measured.

Crj:BDF1 mice (male) = assay: Mouse breeding test; format: in vivo; details: feed containing 5% by mass of erythritol
Description: Crj:BDF1 mice (male) were divided into a group fed with a feed containing 5% by mass of erythritol (erythritol-added group; the present invention) and a group fed with a feed containing no erythritol (no-erythritol-added group; control), and bred, followed by investigation of 50% survival times, 75% survival times, average survival times, survival rates, and maximum survival times.

[3] = 0.05% by mass sugar alcohol in 0.75% agar medium, After 3 days
[4] = 0.05% by mass sugar alcohol in 0.75% agar medium, After 6 days
[5] = 0.1% by mass sugar alcohol in 0.75% agar medium, After 3 days
[6] = 0.1% by mass sugar alcohol in 0.75% agar medium, After 6 days
[7] = 0.5% by mass sugar alcohol in 0.75% agar medium, After 3 days
[8] = 0.5% by mass sugar alcohol in 0.75% agar medium, After 6 days

`OC[C@@H](O)[C@@H](O)CO` [erythritol] was tested, and the “survival rate compared with control” value ([1]; breeding for 24 months, FIG. 2) was “increased”, the “average body weight compared with control” value ([1]; watched for four weeks, FIG. 3) was “increased” and the “Number of mushroom with pileus diameter of 5 cm or more” value (shortened to “Number of mushroom”) (shiitake; 0.05% by mass erythritol aqueous solution) was 8. The “Number of mushroom” value (shiitake; 0.5% by mass erythritol aqueous solution) was 5, the “Number of mushroom” value (shiitake; 5.0% by mass erythritol aqueous solution) was 9 and the “numbers of mushrooms with a pileus diameter of 5 cm or more compared with control” value (shiitake; all the concentrations (0.05, 0.5, 5% by mass)) was “significantly increase”. The yeast proliferation effect [2] was “confirmed”, the “absorbance at 660 nm” value ([2]; 27 hours later, control 2.65) was 2.88 and the “sizes of the yeast cells larger than control” value ([2]; under a microscope) was “about 20%”. The “growth promoting effect on roots and leaves/stems” value (Arabidopsis plants) was “confirmed”, the “Lengths of radish sprouts” value (Radish sprouts; [3]) was 46 mm and the “Lengths of radish sprouts” value (Radish sprouts; [4]) was 109 mm. The “length of radish sprouts / growth promoting effect compared with no-sugar-alcohol-added group” value (Radish sprouts; 0.05 to 0.5% by mass in agar medium) was “particularly excellent growth promoting effects”, the “Lengths of radish sprouts” value (Radish sprouts; [5]) was 30 mm and the “Lengths of radish sprouts” value (Radish sprouts; [6]) was 76 mm. The “Lengths of radish sprouts” value (Radish sprouts; [7]) was 31 mm, the “Lengths of radish sprouts” value (Radish sprouts; [8]) was 87 mm and the 50% survival time (Crj:BDF1 mice (male); Crj:BDF1 male mice) was 927 days. For the same compound, the 75% survival time (Crj:BDF1 mice (male); Crj:BDF1 male mice) was 850 days, the Average survival time (Crj:BDF1 mice (male); Crj:BDF1 male mice) was 768 days and the Maximum survival time (Crj:BDF1 mice (male); Crj:BDF1 male mice) was 1,080 days. The “50% survival time compared with control” value (Crj:BDF1 mice (male); vs no-erythritol-added group) was “prolonged”, the “75% survival time compared with control” value (Crj:BDF1 mice (male); vs no-erythritol-added group) was “prolonged” and the “average survival time compared with control” value (Crj:BDF1 mice (male); vs no-erythritol-added group) was “prolonged”. The “maximum survival time compared with control” value (Crj:BDF1 mice (male); vs no-erythritol-added group) was “no significant difference” and the “survival rate compared with control” value (Crj:BDF1 mice (male); vs no-erythritol-added group) was “prolonged”.
With `OC[C@@H](O)[C@@H](O)[C@H](O)[C@H](O)CO` [mannitol] the “Lengths of radish sprouts” value (Radish sprouts; [3]) was 15 mm, the “Lengths of radish sprouts” value (Radish sprouts; [4]) was 59 mm and the “Lengths of radish sprouts” value (Radish sprouts; [5]) was 29 mm. For the same compound, the “Lengths of radish sprouts” value (Radish sprouts; [6]) was 61 mm, the “Lengths of radish sprouts” value (Radish sprouts; [7]) was 24 mm and the “Lengths of radish sprouts” value (Radish sprouts; [8]) was 55 mm.
For `OC[C@@H](O)[C@@H](O)[C@H](O)[C@@H](O)CO` [sorbitol], the “Lengths of radish sprouts” value (Radish sprouts; [3]) was 30 mm, the “Lengths of radish sprouts” value (Radish sprouts; [4]) was 68 mm and the “Lengths of radish sprouts” value (Radish sprouts; [5]) was 31 mm. The “Lengths of radish sprouts” value (Radish sprouts; [6]) was 64 mm, the “Lengths of radish sprouts” value (Radish sprouts; [7]) was 27 mm and the “Lengths of radish sprouts” value (Radish sprouts; [8]) was 52 mm.
